Results reported in BindingDB's records for doi:10.1074/jbc.M701813200 (Jacobus Pharmaceutical, 2007).

Molecular target: T1, Enoyl-ACP reductase (Plasmodium falciparum, UniProt Q9BJJ9)
T1 sequence (Q9BJJ9 whole entry): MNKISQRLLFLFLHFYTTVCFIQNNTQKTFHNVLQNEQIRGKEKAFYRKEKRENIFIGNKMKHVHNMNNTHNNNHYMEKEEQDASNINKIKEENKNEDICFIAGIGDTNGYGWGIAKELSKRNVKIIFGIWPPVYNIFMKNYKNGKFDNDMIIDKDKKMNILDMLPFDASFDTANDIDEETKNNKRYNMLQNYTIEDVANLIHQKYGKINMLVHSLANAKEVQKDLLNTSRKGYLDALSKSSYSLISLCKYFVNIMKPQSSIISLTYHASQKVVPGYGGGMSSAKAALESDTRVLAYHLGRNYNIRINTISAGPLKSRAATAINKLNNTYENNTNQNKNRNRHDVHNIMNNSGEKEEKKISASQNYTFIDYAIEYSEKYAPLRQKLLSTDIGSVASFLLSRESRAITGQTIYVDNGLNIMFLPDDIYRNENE
Assay: PfENR Enzymatic Inhibition Assay
Details: pH 7.9; 25 °C
Procedure: PfENR inhibition assays were carried out on a Cary 100 Bio Spectrophotometer or POLARstar Optima by monitoring oxidation of NADH at 340 nm. The IC50 was determined from a dose-response plot of enzyme fractional activity as a function of inhibitor concentration.

SMILES | IC50 [µM]
Oc1cc(Cl)ccc1Oc1ccc(Cl)cc1Cl | 0.073
Oc1cc(-c2nn[nH]n2)ccc1Oc1ccc(Cl)cc1Cl [2-(2,4-dichlorophenoxy)-5-(2H-1,2,3,4-tetrazol-5-yl)phenol] | > 100
O=C(O)c1ccc(Oc2ccc(Cl)cc2Cl)c(O)c1 [4-(2,4-dichlorophenoxy)-3-hydroxybenzoic acid] | > 100
